According to US11242334B2, “Heterocyclic compounds as kinase inhibitors, compositions comprising the heterocyclic compound, and methods of use thereof” (JS INNOPHARM (SHANGHAI) LTD, priority 2017, dated 2022):

Key:
human ERK2 = target: T1, human ERK2 (Homo sapiens, UniProt P28482); test: LanthaScreen TR-FRET enzymatic assay, ERK2; conditions: IC50 values of ERK2 biochemical activity; 5 μM ATP, 400 nM ATF2-GFP substrate
T1 construct: recombinantly expressed as GST-tagged full-length protein purified from E. coli; GST; purchased Invitrogen PV3311; host or cells: E. coli
T1 sequence (P28482 whole entry): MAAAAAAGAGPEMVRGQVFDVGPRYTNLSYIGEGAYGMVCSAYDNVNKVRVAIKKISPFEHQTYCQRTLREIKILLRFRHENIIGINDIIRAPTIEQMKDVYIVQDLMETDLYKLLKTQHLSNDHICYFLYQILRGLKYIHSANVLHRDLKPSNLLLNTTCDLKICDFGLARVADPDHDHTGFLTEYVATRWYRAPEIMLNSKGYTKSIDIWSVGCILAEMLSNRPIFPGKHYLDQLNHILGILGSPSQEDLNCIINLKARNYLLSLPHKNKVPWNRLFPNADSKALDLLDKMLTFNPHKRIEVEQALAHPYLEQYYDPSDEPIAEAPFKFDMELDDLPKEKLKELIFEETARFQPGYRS
Outline: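 GST-tagged full-length ERK2 from E. coli, activated with MAP2K1, was used at 20 ng/ml with 400 nM GFP-ATF2(19-96) and 5 μM ATP (near Km). Compound was pre-incubated 15 min, and the reaction ran 1 h at room temperature. pThr71 was detected by Tb-antibody TR-FRET ratio, with IC50 from sigmoid fitting against 1% DMSO.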

Colo205 cell line = test: Colo205 cell proliferation assay (MTT assay, WST-8 readout); type: cell-based; conditions: Homo sapiens; IC50 values of growth inhibition in Colo 205 cells; 72 hours
Outline: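 Colo205 cells were seeded at 5,000 cells/well in RPMI-1640 with 10% FBS and attached for 24 h at 37° C. They were then exposed for 72 h to compound at final 50 μM to 0.005 μM (0.5% DMSO). Viability was read as WST-8 absorbance at 450 nm after 2 h, and IC50 of growth inhibition was determined.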

SMILES | IC50 (human ERK2) [nM] | IC50 (Colo205 cell line) [nM]
CCOc1cc(-c2n[nH]c3ccc(-c4ccn([C@H](CO)c5cc(F)cc(Br)c5)c(=O)c4)cc23)ccn1 [Example 119, (S)-1-(1-(3-bromo-5-fluorophenyl)-2-hydroxyethyl)-4-(3-(2-ethoxypyridin-4-yl)-1H-indazol-5-yl)pyridin-2(1H)-one] | < 10 | ≤ 500
Cn1cc(-c2n[nH]c3ccc(-c4ccn([C@H](CO)c5cc(F)cc(Br)c5)c(=O)c4)cc23)ccc1=O [Example 120, (S)-1-(1-(3-bromo-5-fluorophenyl)-2-hydroxyethyl)-4-(3-(1-methyl-6-oxo-1,6-dihydropyridin-3-yl)-1H-indazol-5-yl)pyridin-2(1H)-one] | < 10 | 1000 to 5000
Cn1ccc(-c2n[nH]c3ccc(-c4ccn([C@H](CO)c5cc(F)cc(Br)c5)c(=O)c4)cc23)cc1=O [Example 121, (S)-1-(1-(3-bromo-5-fluorophenyl)-2-hydroxyethyl)-4-(3-(1-methyl-2-oxo-1,2-dihydropyridin-4-yl)-1H-indazol-5-yl)pyridin-2(1H)-one] | < 10 | 1000 to 5000
COc1ccc(-c2n[nH]c3ccc(-c4ccn([C@H](CO)c5cc(F)cc(Br)c5)c(=O)c4)nc23)cn1 [Example 122, (S)-1-(1-(3-bromo-5-fluorophenyl)-2-hydroxyethyl)-4-(3-(6-methoxypyridin-3-yl)-1H-pyrazolo[4,3-b]pyridin-5-yl)pyridin-2(1H)-one] | < 10 | 1000 to 5000
O=c1cc(-c2ccc3[nH]nc(-c4ccc(F)cn4)c3c2)ccn1Cc1ccnc(C(F)(F)F)c1 [Example 123, 4-(3-(5-fluoropyridin-2-yl)-1H-indazol-5-yl)-1-((2-(trifluoromethyl)pyridin-4-yl)methyl)pyridin-2(1H)-one] | 10 to 50 | > 5000
COc1ccc(-c2n[nH]c3cnc(-c4ccn([C@H](CO)c5cc(F)cc(Br)c5)c(=O)c4)cc23)cn1 [Example 124, (S)-1-(1-(3-bromo-5-fluorophenyl)-2-hydroxyethyl)-4-(3-(6-methoxypyridin-3-yl)-1H-pyrazolo[3,4-c]pyridin-5-yl)pyridin-2(1H)-one] | < 10 | 500 to 1000
CC(c1cc(F)cc(Br)c1)n1ccc(-c2ccc3[nH]nc([C@H]4CC[C@H](O)CC4)c3c2)cc1=O (stereo partly drawn) [Example 140, 1-(1-(3-bromo-5-fluorophenyl)ethyl)-4-(3-((1r,4r)-4-hydroxycyclohexyl)-1H-indazol-5-yl)pyridin-2(1H)-one] | < 10 | 1000 to 5000
Cc1cc(-c2n[nH]c3ccc(-c4ccn(C(C)c5ccnc(C(F)(F)F)c5)c(=O)c4)cc23)ccn1 (stereo not drawn) [Example 142, 4-(3-(2-methylpyridin-4-yl)-1H-indazol-5-yl)-1-(1-(2-(trifluoromethyl)pyridin-4-yl)ethyl)pyridin-2(1H)-one] | < 10 | ≤ 500
Cc1cc(-c2n[nH]c3ccc(-c4cc(C)n(Cc5ccnc(C(F)(F)F)c5)c(=O)c4)cc23)ccn1 [Example 143, 6-methyl-4-(3-(2-methylpyridin-4-yl)-1H-indazol-5-yl)-1-((2-(trifluoromethyl)pyridin-4-yl)methyl)pyridin-2(1H)-one] | < 10 | 500 to 1000

Other lines, results leading:

IC50 (human ERK2) [nM] | IC50 (Colo205 cell line) [nM] | SMILES
< 10 | ≤ 500 | CNCC(c1ccc(F)c(Cl)c1)n1ccc(-c2ccc3[nH]nc(-c4ccnc(C)c4)c3c2)cc1=O (stereo not drawn) [Example 107, 1-(1-(3-chloro-4-fluorophenyl)-2-(methylamino)ethyl)-4-(3-(2-methylpyridin-4-yl)-1H-indazol-5-yl)pyridin-2(1H)-one]
< 10 | 1000 to 5000 | Cn1cc(-c2n[nH]c3ncc(-c4ccn([C@H](CO)c5ccc(F)c(Cl)c5)c(=O)c4)cc23)cn1 [Example 108, (S)-1-(1-(3-chloro-4-fluorophenyl)-2-hydroxyethyl)-4-(3-(1-methyl-1H-pyrazol-4-yl)-1H-pyrazolo[3,4-b]pyridin-5-yl)pyridin-2(1H)-one]
< 10 | > 5000 | O=c1cc(-c2ccc3[nH]nc(-c4cnn(CCO)c4)c3c2)ccn1[C@H](CO)c1ccc(F)c(Cl)c1 [Example 109, (S)-1-(1-(3-chloro-4-fluorophenyl)-2-hydroxyethyl)-4-(3-(1-(2-hydroxyethyl)-1H-pyrazol-4-yl)-1H-indazol-5-yl)pyridin-2(1H)-one]
< 10 | 500 to 1000 | CCOc1ccc(-c2n[nH]c3ncc(-c4ccn([C@H](CO)c5cc(F)cc(Br)c5)c(=O)c4)cc23)cn1 [Example 110, (S)-1-(1-(3-bromo-5-fluorophenyl)-2-hydroxyethyl)-4-(3-(6-ethoxypyridin-3-yl)-1H-pyrazolo[3,4-b]pyridin-5-yl)pyridin-2(1H)-one]
< 10 | ≤ 500 | O=c1cc(-c2ccc3[nH]nc(-c4ccc(F)cc4)c3c2)ccn1[C@H](CO)c1cc(F)cc(Br)c1 [Example 111, (S)-1-(1-(3-bromo-5-fluorophenyl)-2-hydroxyethyl)-4-(3-(4-fluorophenyl)-1H-indazol-5-yl)pyridin-2(1H)-one]
< 10 | 1000 to 5000 | Cc1cc(-c2n[nH]c3ccc(-c4ccn(Cc5ccnc(C(F)(F)F)c5)c(=O)c4)nc23)ccn1 [Example 112, 4-(3-(2-methylpyridin-4-yl)-1H-pyrazolo[4,3-b]pyridin-5-yl)-1-((2-(trifluoromethyl)pyridin-4-yl)methyl)pyridin-2(1H)-one]
< 10 | ≤ 500 | Cn1cc2cc(-c3n[nH]c4ccc(-c5ccn([C@H](CO)c6cc(F)cc(Br)c6)c(=O)c5)cc34)ccc2n1 [Example 113, (S)-1-(1-(3-bromo-5-fluorophenyl)-2-hydroxyethyl)-4-(2′-methyl-1H,2′H-[3,5′-biindazol]-5-yl)pyridin-2(1H)-one]
< 10 | ≤ 500 | O=c1cc(-c2ccc3[nH]nc(-c4ccc5ncsc5c4)c3c2)ccn1[C@H](CO)c1cc(F)cc(Br)c1 [Example 114, (S)-4-(3-(benzo[d]thiazol-6-yl)-1H-indazol-5-yl)-1-(1-(3-bromo-5-fluorophenyl)-2-hydroxyethyl)pyridin-2(1H)-one]
< 10 | ≤ 500 | COc1cc(-c2n[nH]c3ccc(-c4ccn([C@H](CO)c5cc(F)cc(Br)c5)c(=O)c4)cc23)ccn1 [Example 115, (S)-1-(1-(3-bromo-5-fluorophenyl)-2-hydroxyethyl)-4-(3-(2-methoxypyridin-4-yl)-1H-indazol-5-yl)pyridin-2(1H)-one]
< 10 | 1000 to 5000 | COc1ccc(-c2n[nH]c3ccc(-c4ccn(Cc5ccnc(C(F)(F)F)c5)c(=O)c4)cc23)cn1 [Example 116, 4-(3-(6-methoxypyridin-3-yl)-1H-indazol-5-yl)-1-((2-(trifluoromethyl)pyridin-4-yl)methyl)pyridin-2(1H)-one]
< 10 | 1000 to 5000 | O=c1cc(-c2ccc3[nH]nc(-c4ccc(F)cc4)c3c2)ccn1Cc1ccnc(C(F)(F)F)c1 [Example 117, 4-(3-(4-fluorophenyl)-1H-indazol-5-yl)-1-((2-(trifluoromethyl)pyridin-4-yl)methyl)pyridin-2(1H)-one]
< 10 | ≤ 500 | O=c1cc(-c2ccc3[nH]nc(-c4ccc(OC5CC5)nc4)c3c2)ccn1[C@H](CO)c1cc(F)cc(Br)c1 [Example 118, (S)-1-(1-(3-bromo-5-fluorophenyl)-2-hydroxyethyl)-4-(3-(6-cyclopropoxypyridin-3-yl)-1H-indazol-5-yl)pyridin-2(1H)-one]
